From patent US8921394B2, “Prolylcarboxypeptidase inhibitors” (Merck Sharp & Dohme Corp., priority 2010, dated 2014)
Counter-ions that a name gives are not always drawn. Like-named read-outs stand apart in the source and are kept apart here.

Columns and labels:
[1] = biological target: T1, human PrCP (Homo sapiens, UniProt P42785); assay: Prolylcarboxypeptidase (PRCP) enzyme activity assay, fluorescence intensity kinetic assay; type: biochemical
T1 construct: made in house
T1 sequence (P42785 46-496): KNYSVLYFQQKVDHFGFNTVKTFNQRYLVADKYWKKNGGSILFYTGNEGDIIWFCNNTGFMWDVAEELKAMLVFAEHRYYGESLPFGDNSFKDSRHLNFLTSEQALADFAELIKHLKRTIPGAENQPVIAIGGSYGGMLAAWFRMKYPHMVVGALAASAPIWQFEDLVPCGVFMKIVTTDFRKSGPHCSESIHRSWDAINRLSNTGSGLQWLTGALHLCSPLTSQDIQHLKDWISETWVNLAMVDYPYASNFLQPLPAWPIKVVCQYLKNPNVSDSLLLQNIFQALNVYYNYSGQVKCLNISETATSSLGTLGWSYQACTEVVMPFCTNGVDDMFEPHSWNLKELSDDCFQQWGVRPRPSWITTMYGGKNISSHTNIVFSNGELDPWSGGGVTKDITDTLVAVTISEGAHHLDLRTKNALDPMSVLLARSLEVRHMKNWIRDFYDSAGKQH
Description: The potency of compounds of formula I against PrCP was determined by a fluorescence intensity kinetic assay measuring the IC50 values of PrCP inhibitor test compounds. […] The assay was run on a Perkin. […] The assay was performed using a Hamilton Star liquid handling workstation. The assay employed the internally quenched fluorescent substrate (1S)-1-carboxy-5-[(2,4-dinitrophenyl)amino]pentyl [(7-methoxy-2-oxo-2H-chromen-4-yl)acetyl]-L-alanyl-L-prolinate prepared in house. The assay was run in a 384-well microtiter plate at 37° C. with a total volume of 50 uL. […] The assay also contained 2% DMSO used to solubilize the substrate and inhibitor. Inhibitors were prepared in 100% DMSO and serial diluted (in 100% DMSO) to generate 11 point titration curves. Either 39 uL of human or mouse PrCP enzyme was added to the wells of the assay plate, followed by a 1 uL addition of the serially diluted inhibitor and mixed three times using a 30 uL mix volume. The reaction was initiated by the addition of 10 uL substrate and mixed three times using a 30 uL mix volume. The reactions were monitored continuously over 25 min at 37° C. to obtain initial velocities. IC50 values were calculated by comparing the resulting rates of reaction of the inhibited and control initial velocities.
The enzymes were diluted in a mixture of 10 mM NaOAc (pH 5.5)/100 mM NaCl buffer containing 25 ug/mL bovine serum albumin that had been warmed to 37° C. in a water bath. The PrCP inhibitor test compounds were plated in 100% DMSO with a highest concentration of 500 uM. There were 12 dilution points for each compound tested including a blank with DMSO only. […] Likewise, two control compounds were similarly titrated and included in each assay, with final starting concentrations starting at 10,000 nM and 200 nM, respectively. […] The substrate was solubilized in 100% DMSO prior to dilution into the assay.

[2] = intracerebroventricular to rats; cited from earlier work
[3] = systemic administration to obese, leptin deficient mice; cited from earlier work
[4] = recombinant human PrCP, cell line CHO, read-out: Human PRCP Enzyme Inhibition IC50

Compound: Fc1ccc(-c2cc([C@@H]3CCN(CCc4ccccc4)C[C@H]3c3ccc(F)cc3)n[nH]2)cc1 (relative stereo) [Example 11, (3R*,4R*)-3-(4-fluorophenyl)-4-[5-(4-fluorophenyl)-1H-pyrazol-3-yl]-1-phenethyl-piperidine trifluoroacetate salt]
- IC50 [1, 4]: 2.3 nM

Compound: CC(C)(C)N1C[C@@H](c2cc(-c3ccc(Cl)cc3)[nH]n2)[C@H](c2ccc(F)cc2F)C1 [Example 13, 3-[(3S,4R)-1-tert-butyl-4-(2,4-difluorophenyl)pyrrolidin-3-yl]-5-(4-chlorophenyl)-1H-pyrazole trifluoroacetate salt]
- IC50 ([1]; recombinant human PrCP, cell line HEK, read-out: Human PRCP Enzyme Inhibition IC50): 413 nM

Compound: Fc1ccc([C@@H]2CN(CCc3ccccc3)CC[C@H]2c2n[nH]c(-c3ccc(Cl)cc3)n2)cc1 (relative stereo) [Example 20, (3R*,4R*)-4-[5-(4-chlorophenyl)-1H-1,2,4-triazol-3-yl]-3-(4-fluorophenyl)-1-phenethyl-piperidine trifluoroacetate salt]
- IC50 [1, 4]: 50.9 nM

Compound: Clc1ccc(CCN2CCC(c3ccccc3)(c3cc(-c4ccc(Cl)cc4)[nH]n3)CC2)cc1 [Example 6, 1-[2-(4-chlorophenyl)ethyl]-4-[5-(4-chlorophenyl)-1H-pyrazol-3-yl]-4-phenyl-piperidine trifluoroacetate salt]
- IC50 [1]: 175 nM

Compound: t-butyl carbamate-prolyl prolinal [BPP]
- overnight food intake [2]: suppression of overnight food intake
- overnight food intake [3]: suppression of overnight food intake

Compound: Cn1nc(C2(c3ccccn3)CCN(CCc3ccccc3)CC2)cc1-c1ccc(F)cc1 [Example 3, 2-[4-[5-(4-fluorophenyl)-1-methyl-pyrazol-3-yl]-1-phenethyl-4-piperidyl]pyridine bis(trifluoroacetate) salt]
- IC50 [1]: 498 nM

Compound: N#Cc1cccc(-c2cc([C@@H]3CCN(CCc4ccccc4)C[C@H]3c3ccc(F)cc3)n[nH]2)c1 (relative stereo) [Example 12, 3-[3-[(3R*,4R*)-3-(4-fluorophenyl)-1-phenethyl-4-piperidyl]-1H-pyrazol-5-yl]benzonitrile triflizoroacetate salt]
- IC50 [1, 4]: 7.9 nM
